Here are results for four molecules from US10092563B2, “Phosphatidylinositol 3-kinase inhibitors” (Gilead Sciences, Inc., priority 2014, dated 2018).

What all share (assay): TR-FRET enzymatic assay of PI3K isoforms
What all share (type): biochemical
For orientation: TR-FRET usually uses a lanthanide donor and a delayed reading to cut background.

The target of one assay is PI3Kβ (Homo sapiens (Human), UniProt P42338). The settings on record: for PI3Kγ/PI3Kβ ratio: ratio of IC50 PI3Kγ to IC50 PI3Kβ (fold). Here is the method: (§1) The compounds of formula (I) were characterized for their enzymatic activity against the PI3K isoforms. The activities were measured using a time-resolved fluorescence resonance energy transfer (TR-FRET) assay.
Sequence of PI3Kβ (P42338 whole entry, canonical isoform): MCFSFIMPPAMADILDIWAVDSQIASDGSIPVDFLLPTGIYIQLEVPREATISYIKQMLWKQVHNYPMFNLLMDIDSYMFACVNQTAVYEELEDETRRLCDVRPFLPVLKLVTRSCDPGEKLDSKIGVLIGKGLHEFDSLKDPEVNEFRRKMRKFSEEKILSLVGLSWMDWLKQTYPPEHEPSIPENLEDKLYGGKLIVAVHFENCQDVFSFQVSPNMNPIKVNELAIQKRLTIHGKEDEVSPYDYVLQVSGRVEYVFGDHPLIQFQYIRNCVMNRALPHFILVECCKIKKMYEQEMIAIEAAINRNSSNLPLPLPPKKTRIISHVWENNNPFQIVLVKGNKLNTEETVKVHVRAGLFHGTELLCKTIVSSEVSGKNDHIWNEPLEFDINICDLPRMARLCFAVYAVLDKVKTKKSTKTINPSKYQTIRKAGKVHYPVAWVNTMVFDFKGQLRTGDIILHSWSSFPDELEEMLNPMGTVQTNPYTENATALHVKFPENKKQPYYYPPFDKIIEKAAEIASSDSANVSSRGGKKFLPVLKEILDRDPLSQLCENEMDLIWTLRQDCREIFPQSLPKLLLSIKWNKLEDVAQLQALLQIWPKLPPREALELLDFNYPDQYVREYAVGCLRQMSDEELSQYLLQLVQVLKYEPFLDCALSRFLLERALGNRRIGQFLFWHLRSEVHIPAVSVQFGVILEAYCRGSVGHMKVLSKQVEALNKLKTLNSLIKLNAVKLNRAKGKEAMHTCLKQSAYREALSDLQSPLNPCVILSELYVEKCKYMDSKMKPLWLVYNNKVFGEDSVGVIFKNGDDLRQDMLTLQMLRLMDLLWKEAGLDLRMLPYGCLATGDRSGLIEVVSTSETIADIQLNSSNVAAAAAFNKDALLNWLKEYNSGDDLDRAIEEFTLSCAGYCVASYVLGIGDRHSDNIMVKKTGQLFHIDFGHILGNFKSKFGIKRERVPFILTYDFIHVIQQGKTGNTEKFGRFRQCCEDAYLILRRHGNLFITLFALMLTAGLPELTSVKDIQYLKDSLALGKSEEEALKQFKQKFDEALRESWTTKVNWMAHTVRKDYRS
Sequence of PI3Kβ (P27986 whole entry partner, canonical isoform): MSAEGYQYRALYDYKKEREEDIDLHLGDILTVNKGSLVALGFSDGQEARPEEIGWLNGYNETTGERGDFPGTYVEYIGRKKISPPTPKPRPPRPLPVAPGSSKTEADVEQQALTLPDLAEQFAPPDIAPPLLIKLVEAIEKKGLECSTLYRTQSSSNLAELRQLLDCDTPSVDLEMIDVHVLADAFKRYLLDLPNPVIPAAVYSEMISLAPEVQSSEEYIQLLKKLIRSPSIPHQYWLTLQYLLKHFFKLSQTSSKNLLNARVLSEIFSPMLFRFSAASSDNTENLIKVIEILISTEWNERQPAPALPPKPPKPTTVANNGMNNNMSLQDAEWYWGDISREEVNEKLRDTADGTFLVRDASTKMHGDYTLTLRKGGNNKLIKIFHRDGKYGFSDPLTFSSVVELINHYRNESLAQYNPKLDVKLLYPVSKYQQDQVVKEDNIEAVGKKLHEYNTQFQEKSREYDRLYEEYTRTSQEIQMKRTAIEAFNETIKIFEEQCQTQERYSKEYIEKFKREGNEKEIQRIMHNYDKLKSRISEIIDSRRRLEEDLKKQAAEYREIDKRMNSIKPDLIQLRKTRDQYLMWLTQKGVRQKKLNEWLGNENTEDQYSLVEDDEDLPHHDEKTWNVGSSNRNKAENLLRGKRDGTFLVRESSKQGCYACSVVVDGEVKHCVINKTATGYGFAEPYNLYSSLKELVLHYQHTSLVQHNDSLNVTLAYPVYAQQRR
The target of a further assay is PI3Kγ (Homo sapiens (Human), UniProt P48736). The settings on record: 2× Km ATP, 30 minutes at 25° C. As to the method: as §1
Sequence of PI3Kγ (P48736 whole entry): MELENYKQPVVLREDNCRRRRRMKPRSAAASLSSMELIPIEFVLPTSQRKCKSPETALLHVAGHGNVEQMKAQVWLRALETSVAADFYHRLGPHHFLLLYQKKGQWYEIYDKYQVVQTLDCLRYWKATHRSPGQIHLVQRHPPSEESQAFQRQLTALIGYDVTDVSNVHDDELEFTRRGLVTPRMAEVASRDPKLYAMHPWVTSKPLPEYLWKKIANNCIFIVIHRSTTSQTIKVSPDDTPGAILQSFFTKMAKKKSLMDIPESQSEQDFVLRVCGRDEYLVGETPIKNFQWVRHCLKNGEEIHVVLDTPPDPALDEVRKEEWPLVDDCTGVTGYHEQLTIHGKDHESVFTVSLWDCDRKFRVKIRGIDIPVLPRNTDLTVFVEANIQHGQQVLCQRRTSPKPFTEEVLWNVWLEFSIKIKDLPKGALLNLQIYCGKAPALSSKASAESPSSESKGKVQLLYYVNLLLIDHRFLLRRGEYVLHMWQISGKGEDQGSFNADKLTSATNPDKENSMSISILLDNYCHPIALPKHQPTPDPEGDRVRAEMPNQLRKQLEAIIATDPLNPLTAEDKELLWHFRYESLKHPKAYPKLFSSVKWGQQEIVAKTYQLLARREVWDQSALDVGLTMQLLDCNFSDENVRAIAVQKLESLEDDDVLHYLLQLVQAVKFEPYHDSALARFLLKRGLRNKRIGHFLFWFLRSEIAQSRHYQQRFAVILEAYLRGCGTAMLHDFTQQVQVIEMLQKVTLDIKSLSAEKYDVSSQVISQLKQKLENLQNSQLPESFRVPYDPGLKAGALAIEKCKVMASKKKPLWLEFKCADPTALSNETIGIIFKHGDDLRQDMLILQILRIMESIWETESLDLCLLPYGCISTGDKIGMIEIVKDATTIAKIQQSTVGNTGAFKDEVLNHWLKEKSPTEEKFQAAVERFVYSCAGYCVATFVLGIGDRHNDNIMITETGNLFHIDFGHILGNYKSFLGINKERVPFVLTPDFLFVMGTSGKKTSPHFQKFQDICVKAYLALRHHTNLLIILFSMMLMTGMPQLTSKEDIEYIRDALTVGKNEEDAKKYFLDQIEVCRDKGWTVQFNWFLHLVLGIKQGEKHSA
Sequence of PI3Kγ (Q8WYR1 whole entry partner): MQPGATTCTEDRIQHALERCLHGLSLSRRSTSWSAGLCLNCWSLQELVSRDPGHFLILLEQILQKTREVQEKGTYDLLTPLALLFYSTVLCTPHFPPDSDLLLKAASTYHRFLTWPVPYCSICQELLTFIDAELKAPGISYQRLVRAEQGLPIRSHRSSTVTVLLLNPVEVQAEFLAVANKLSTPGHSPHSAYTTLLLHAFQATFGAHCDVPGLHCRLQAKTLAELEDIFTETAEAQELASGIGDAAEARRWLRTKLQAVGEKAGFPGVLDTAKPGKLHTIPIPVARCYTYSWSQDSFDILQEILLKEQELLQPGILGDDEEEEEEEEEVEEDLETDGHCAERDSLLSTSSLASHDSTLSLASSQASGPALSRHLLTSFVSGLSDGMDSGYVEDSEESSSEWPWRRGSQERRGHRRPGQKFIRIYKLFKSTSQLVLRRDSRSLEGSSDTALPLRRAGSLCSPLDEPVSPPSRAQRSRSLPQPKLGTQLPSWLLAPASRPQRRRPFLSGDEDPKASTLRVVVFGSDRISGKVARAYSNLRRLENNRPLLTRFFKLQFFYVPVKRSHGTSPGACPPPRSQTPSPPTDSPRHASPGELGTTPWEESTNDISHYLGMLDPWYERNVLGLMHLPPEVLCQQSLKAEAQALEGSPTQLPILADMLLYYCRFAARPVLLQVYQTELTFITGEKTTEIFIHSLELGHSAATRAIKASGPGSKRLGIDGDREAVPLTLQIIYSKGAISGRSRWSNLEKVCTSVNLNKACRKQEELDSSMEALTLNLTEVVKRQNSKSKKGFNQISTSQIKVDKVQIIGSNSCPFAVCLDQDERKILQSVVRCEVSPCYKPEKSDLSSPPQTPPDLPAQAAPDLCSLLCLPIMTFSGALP
A further assay deals with PI3Kδ (Homo sapiens (Human), UniProt O00329). The settings on record: 2× Km ATP, 30 minutes at 25° C. Here is the method:
as §1

Sequence of PI3Kδ (O00329 whole entry): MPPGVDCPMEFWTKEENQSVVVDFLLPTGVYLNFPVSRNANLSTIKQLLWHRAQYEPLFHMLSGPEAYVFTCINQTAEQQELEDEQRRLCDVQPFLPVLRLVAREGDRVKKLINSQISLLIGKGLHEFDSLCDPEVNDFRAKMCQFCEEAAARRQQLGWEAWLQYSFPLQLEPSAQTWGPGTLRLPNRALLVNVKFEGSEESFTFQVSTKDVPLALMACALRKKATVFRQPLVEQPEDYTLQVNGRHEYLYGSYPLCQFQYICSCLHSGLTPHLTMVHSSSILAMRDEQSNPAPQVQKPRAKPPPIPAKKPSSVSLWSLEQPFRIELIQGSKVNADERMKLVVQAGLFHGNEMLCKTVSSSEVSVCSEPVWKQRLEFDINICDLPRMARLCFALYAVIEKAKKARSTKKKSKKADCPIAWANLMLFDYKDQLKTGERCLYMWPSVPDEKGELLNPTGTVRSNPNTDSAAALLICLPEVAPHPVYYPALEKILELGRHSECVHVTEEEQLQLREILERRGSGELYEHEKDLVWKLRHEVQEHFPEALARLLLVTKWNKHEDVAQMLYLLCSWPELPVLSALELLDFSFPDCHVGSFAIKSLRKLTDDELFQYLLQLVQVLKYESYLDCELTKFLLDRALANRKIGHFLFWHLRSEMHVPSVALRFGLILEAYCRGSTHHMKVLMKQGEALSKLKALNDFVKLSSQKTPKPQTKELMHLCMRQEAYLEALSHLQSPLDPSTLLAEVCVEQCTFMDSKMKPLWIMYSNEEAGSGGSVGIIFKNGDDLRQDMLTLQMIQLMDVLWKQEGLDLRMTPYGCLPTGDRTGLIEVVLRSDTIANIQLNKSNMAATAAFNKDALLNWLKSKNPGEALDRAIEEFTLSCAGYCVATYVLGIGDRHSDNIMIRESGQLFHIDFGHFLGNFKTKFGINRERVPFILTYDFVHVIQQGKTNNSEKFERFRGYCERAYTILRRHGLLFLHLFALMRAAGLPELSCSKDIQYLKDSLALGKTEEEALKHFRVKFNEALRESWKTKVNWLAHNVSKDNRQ
Sequence of PI3Kδ (P27986 whole entry partner): as the sequence (P27986 whole entry partner, canonical isoform) above

For the molecule `C[C@H](Nc1nc(N)nc(N)c1C#N)c1nc2cccc(Cl)c2c(=O)n1-c1ccccc1` [Compound X, (S)-2,4-diamino-6-((1-(5-chloro-4-oxo-3-phenyl-3,4-dihydroquinazolin-2-yl)ethyl)amino)pyrimidine-5-carbonitrile, reference compound], the PI3Kγ/PI3Kβ ratio at PI3Kβ is 0.6; at PI3Kβ (listed as (S)-2,4-diamino-6-(1-(5-chloro-4-oxo-3-phenyl-3,4-dihydroquinazolin-2-yl)ethyl)), “less than 1”.
`C[C@H](Nc1nc(N)nc(N)c1C#N)c1nc2c(F)ccc(Cl)c2c(=O)n1C1[C@H]2CNC[C@@H]12` (stereo partly drawn) [Compound 17, 4-(((1S)-1-(3-((1R,5S)-3-azabicyclo[3.1.0]hexan-6-yl)-5-chloro-8-fluoro-4-oxo-3,4-dihydroquinazolin-2-yl)ethyl)amino)-2,6-diaminopyrimidine-5-carbonitrile]: the IC50 at PI3Kγ amounted to 2800 nM; against PI3Kβ, 3 nM; against PI3Kδ it was 4 nM.
In the same order, the values of `Cc1nc(N)nc(N[C@@H](C)c2nc3c(F)ccc(Cl)c3c(=O)n2C2[C@H]3CNC[C@@H]23)c1C#N` (stereo partly drawn) [Compound 16, 4-(((1S)-1-(3-((1R,5S)-3-azabicyclo[3.1.0]hexan-6-yl)-5-chloro-8-fluoro-4-oxo-3,4-dihydroquinazolin-2-yl)ethyl)amino)-2-amino-6-methylpyrimidine-5-carbonitrile] are 2600 nM, 2 nM and 6 nM.
Turning to `C[C@H](Nc1nc(N)nc(N)c1C#N)c1nc2cccc(Cl)c2c(=O)n1[C@@H]1CCCNC1` [Compound 27, 2,4-diamino-6-(((S)-1-(5-chloro-4-oxo-3-((R)-piperidin-3-yl)-3,4-dihydroquinazolin-2-yl)ethyl)amino)pyrimidine-5-carbonitrile], the figures for the half-inhibitory concentration (IC50) at PI3Kγ and against PI3Kδ were over 10000 nM and 830 nM, respectively.

What is called IC50 is the concentration needed to halve the response being measured.
